Measured values as given in patent publication EP0220153B1, “A nutritive emulsion having oxygen-transporting properties, and process for its preparation” (Kabi Pharmacia AB, priority 1985, dated 1987).

Assay: acute toxicity test on mice
Settings: mouse, in vivo, other: injected, injected as emulsion of example 1 composition, observation time 72 hours, expressed for perfluorodecalin
Experimental: An emulsion of the same composition and prepared in the same way as in example 1 was tested on mice for acute toxicity. Observation time was 72 hours.
It appears that the acute toxicity (LD₅₀) will be just below 30 g/kg for perfluorodecalin. Owing to the great volumes that were injected, it cannot be excluded that changes in liquid and electrolyte balance have affected the results and that, therefore, an examination of this kind not solely reflects the toxicity of the fluorocarbon compound; however, the indicated value of 30 g/kg is of such a magnitude that the preparation can be regarded as non-toxic.

FC1(F)C(F)(F)C(F)(F)C2(F)C(F)(F)C(F)(F)C(F)(F)C(F)(F)C2(F)C1(F)F (stereo not shown) [perfluorodecalin] showed an LD50 at 72 h of under 30000 mg/kg.
